Data on 45 compounds can be found in patent publication US5763457A, “Method for treating anxiety” (Eli Lilly and Company, priority 1996, dated 1998).

The target in one data set is muscarinic receptor in the CNS.
Assay: not given
The following applies: first (high affinity) site; cited from earlier work.
For the compound `C[N+](C)(C)CC#CCN1CCCC1=O` [^3 H-Oxo, ^3 H-Oxotremorine-M], the Kd is 1.8 nM.

Still in this data set, the particulars now being: second (medium affinity) site; cited from earlier work.
`C[N+](C)(C)CC#CCN1CCCC1=O` [^3 H-Oxo, ^3 H-Oxotremorine-M]: the Kd was 20 nM.

The same data set, now with this note: third site, not determined under present conditions; read-out: affinity; cited from earlier work.
Turning to `C[N+](C)(C)CC#CCN1CCCC1=O` [^3 H-Oxo, ^3 H-Oxotremorine-M], the Kd is 3000 nM.

A further data set has as its target muscarinic acetylcholine receptors. The experiment in a line: inhibition of specific binding of ^3 H-Oxotremorine-M (^3 H-Oxo). The following applies: ^3 H-Oxotremorine 1.0 nM, rat cortex, 30 min, 25° C. The source says: The pharmacological properties of the compounds of the invention can be illustrated by determining their capability to inhibit the specific binding of ^3 H-Oxotremorine-M (^3 H-Oxo). Birdsdall N. J. M., Hulme E. C., and Burgen A. S. V. (1980). "The Character of Muscarinic Receptors in Different Regions of the Rat Brain". Proc. Roy. Soc. London (Series B) 207,1.
^3 H-Oxo labels muscarinic receptor in the CNS (with a preference for agonist domains of the receptors). Three different sites are labeled by ^3 H-Oxo. […] Using the present experimental conditions only the high and medium affinity sites are determined.
The inhibitory effects of compounds on ^3 H-oxo binding reflects the affinity for muscarinic acetylcholine receptors.
All preparations are performed at 0°-4° C. unless otherwise indicated. Fresh cortex (0.1-1 g) from male Wistar rats (150-250 g) is homogenized for 5-10 s in 10 mL […] Hepes pH: 7.4, with an Ultra-Turrax homogenizer. The homogenizer is rinsed with 10 mL of buffer and the combined suspension centrifuged for 15 min. at 40,000×g. The pellet is washed three times with buffer. In each step the pellet is homogenized as before in 2×10 mL of buffer and centrifuged for 10 min. at 40,000×g.
The final pellet is homogenized in […] Hepes pH: 7.4 (100 mL per g of original tissue) and used for binding assay. Aliquots of 0.5 mL is added 25 μL of test solution and 25 μL of ^3 H-Oxotremorine (1.0 nM, final concentration) mixed and incubated for 30 min. at 25° C. Non-specific binding is determined in triplicate using arecoline (1 μg/mL, final concentration) as the test substance. After incubation samples are added 5 mL of ice-cold buffer and poured directly onto Whatman GF/C glass fiber filters under suction and immediately washed 2 times with 5 mL of ice-cold buffer. The amount of radioactivity on the filters are determined by conventional liquid scintillation counting. Specific binding is total binding minus non specific binding.
Test substances are dissolved in 10 mL water (if necessary heated on a steam-bath for less than 5 min.) at a concentration of 2.2 mg/mL. 25-75% inhibition of specific binding must be obtained before calculation of IC50. The test value will be given as IC50 (the concentration (nM) of the test substance which inhibits the specific binding of ^3 H-oxo by 50%). IC50 =(applied test substance concentration) x([…])nM where Co is specific binding in control assays and Cx is the specific binding in the test assay. (The calculations assume normal mass-action kinetics).
The IC50 is the concentration that gives 50% inhibition. In turn, `CCCCSc1nccnc1OC1CN2CCC1CC2` (racemic) [Compound 6] registered a half-maximal inhibitory concentration (IC50) of 2.5 nM.

For `CCCCCCOc1nccnc1OC1CN2CCC1CC2` (racemic) [Compound 5], the IC50 came to 40 nM.

Turning to `CCCCOc1nccnc1OC1CN2CCC1CC2` (racemic) [Compound 3], the half-inhibitory concentration (IC50) came out at 19.3 nM.

`CCCOc1nccnc1OC1CN2CCC1CC2` (racemic) [Compound 4]: the half-inhibitory concentration (IC50) amounted to 25 nM.

Consider `CCCCOc1nonc1OC1CN2CCC1CC2` (racemic) [Compound 1], for which the IC50 came to 81 nM.

Take `Clc1nccnc1OC1CN2CCC1CC2` (racemic) [Compound 2]: the half-maximal inhibitory concentration (IC50) was determined as 374 nM.

Another data set concerns the target T1, muscarinic receptors (M1 -site, pirenzepine sensitive site) (Rattus norvegicus, UniProt P08482).
T1 construct: from tissue; host or cells: fresh cerebral cortex membranes, male Wistar rat
T1 sequence (P08482 1-460): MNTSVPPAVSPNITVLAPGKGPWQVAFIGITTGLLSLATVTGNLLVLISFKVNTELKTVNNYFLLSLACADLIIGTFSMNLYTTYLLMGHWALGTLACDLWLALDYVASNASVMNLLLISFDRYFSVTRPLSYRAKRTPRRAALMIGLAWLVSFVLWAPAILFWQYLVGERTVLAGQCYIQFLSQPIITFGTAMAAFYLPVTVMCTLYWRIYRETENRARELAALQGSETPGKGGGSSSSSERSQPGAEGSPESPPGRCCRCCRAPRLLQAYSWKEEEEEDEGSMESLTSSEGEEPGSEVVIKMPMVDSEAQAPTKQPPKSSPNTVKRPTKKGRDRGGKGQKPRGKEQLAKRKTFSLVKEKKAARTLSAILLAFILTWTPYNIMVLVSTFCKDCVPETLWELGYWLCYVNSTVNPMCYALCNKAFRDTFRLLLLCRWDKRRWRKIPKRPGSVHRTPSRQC
The experiment in a line: inhibition of ^3 HPRZ (pirenzepine, [N-methyl-^3 H]) binding to rat cerebral cortex membranes. Particulars: ^3 HPRZ 1.0 nM, 60 min, 20° C. The method, then: Furthermore the pharmacological properties of the compounds of the invention can also be illustrated by determining their capability to inhibit ^3 HPRZ (pirenzepine, [N-methyl-^3 H]) binding to rat cerebral cortex membranes.
Pirenzepine binds selectively to subtype of muscarinic receptors. Historically the type is named the M1 -site, whereas pirenzepine sensitive site would be more appropriate.
All preparations are performed at 0°-4° C. unless otherwise indicated. Fresh cortex (0.1-1 9) from male Wistar rats (150-200 g) is homogenized for 5-10 s in 10 mL 20 mM Hepes pH: 7.4, with an Ultra-Turrax homogenizer. The homogenizer is rinsed with 2×10 mL of buffer and the combined suspension centrifuged for 15 min. at 40,000×g. The pellet is washed three times with buffer. In each step the pellet is homogenized as before in 3×10 mL of buffer and centrifuged for 10 min. at 40,000×g.
The final pellet is homogenized in 20 mM Hepes pH: 7.4 (100 mL per g of original tissue) and used for binding assay. Aliquots of 0.5 mL is added 20 μL of test solution and 25 μL of ^3 HPRZ (1.0 nM, final conc.), mixed and incubated for 60 min. at 20° C. Non-specific binding is determined in triplicate using atropine (1.0 μg/mL, final conc.) as the test substance. After incubation samples are added 5 mL of ice-cold buffer and poured directly onto Whatman GF/C glass fiber filters under suction and immediately washed 2 times with 5 mL of ice-cold buffer. The amount of radioactivity on the filters are determined by conventional liquid scintillation counting. Specific binding is total binding minus non-specific binding.
Test substances are dissolved in 10 mL water, at a concentration of 0.22 mg/mL. 25-75% inhibition of specific binding must be obtained before calculation of IC50.
The test value will be given as IC50 (the concentration (nM) of the test substance which inhibits the specific binding of ^3 HPRZ by 50%). IC50 =(applied test substance concentration) x(Cx /Co -Cx)nM where Co is specific binding in control assays and Cx is the specific binding in the test assay. (The calculations assume normal mass-action kinetics).
`CCCCCCCSc1nccnc1OC1CN2CCC1CC2` (racemic) [Compound 16] came in with a half-inhibitory concentration (IC50) of 23 nM.

In turn, `FC(F)(F)Oc1ccc(CSc2nccnc2O[C@H]2CN3CCC[C@@H]2C3)cc1` (relative stereo) [Compound 38] showed an IC50 of 3.3 nM.

`CCCCSc1nccnc1O[C@H]1CN2CCC[C@@H]1C2` (relative stereo) [Compound 24]: the IC50 stood at 0.54 nM.

`C[N+](C)(C)CCOc1cnccn1` [Compound 27] gave an IC50 of over 1000 nM.

Compound `CCCCSc1nccnc1OC1CN2CCC1CC2` (racemic) [Compound 6] came in with an IC50 of 0.9 nM.

In the case of `COCCSc1nccnc1O[C@H]1CN2CCC[C@@H]1C2` (relative stereo) [Compound 41], the 50% inhibitory concentration (IC50) is 1.6 nM.

Turning to `CN1CCC[C@H]1COc1cnccn1` [Compound 28], the IC50 was determined as 5710 nM.

Consider `Clc1cncc(O[C@H]2CN3CCC[C@@H]2C3)n1` (relative stereo) [Compound 22], for which the concentration for half-maximal inhibition (IC50) was 52 nM.

`CCCCCCOc1nccnc1OC1CN2CCC1CC2` (racemic) [Compound 5] gave an IC50 of 32 nM.

In turn, `FC(F)(F)CSc1cncc(O[C@H]2CN3CCC[C@@H]2C3)n1` (relative stereo) [Compound 40] displayed a half-inhibitory concentration (IC50) of 17 nM.

In turn, `CCCCCSc1nccnc1O[C@H]1CN2CCC[C@@H]1C2` (relative stereo) [Compound 30] registered an IC50 of 0.82 nM.

The compound `COc1nccnc1OC1CN2CCC1CC2` (racemic) [Compound 10] returned an IC50 of 223 nM.

`CCCCCOc1nccnc1OC1CN2CCC1CC2` (racemic) [Compound 9] returned a 50% inhibitory concentration (IC50) of 30 nM.

For the compound `CC(C)CSc1nccnc1O[C@H]1CN2CCC[C@@H]1C2` (relative stereo) [Compound 31], the IC50 came out at 1.7 nM.

`CCCCCSc1nccnc1OC1CN2CCC1CC2` (racemic) [Compound 7] registered an IC50 of 6.7 nM.

On to `Cc1nccnc1O[C@H]1CN2CCC[C@@H]1C2` (relative stereo) [Compound 20], for which the concentration for half-maximal inhibition (IC50) stood at 246 nM.

Compound `CN(C)CCOc1cnccn1` [Compound 26] returned an IC50 of over 1000 nM.

Take `CCCCSc1nccnc1OCC[N+](C)(C)C` [Compound 18]: the half-inhibitory concentration (IC50) turned out to be 5.4 nM.

With `CCCCCCSc1nccnc1OC1CN2CCC1CC2` (racemic) [Compound 12], the IC50 amounted to 13 nM.

Compound `FC(F)(F)CCCSc1nccnc1O[C@H]1CN2CCC[C@@H]1C2` (relative stereo) [Compound 35] registered a 50% inhibitory concentration (IC50) of 0.54 nM.

For the compound `C(=Cc1ccccc1)CSc1nccnc1O[C@H]1CN2CCC[C@@H]1C2` (relative stereo) [Compound 42], the IC50 came to 4.8 nM.

With `CC(C)=CCCSc1nccnc1O[C@H]1CN2CCC[C@@H]1C2` (relative stereo) [Compound 43], the 50% inhibitory concentration (IC50) amounted to 2.2 nM.

For `Clc1nccnc1O[C@H]1CN2CCC[C@@H]1C2` (relative stereo) [Compound 19], the concentration for half-maximal inhibition (IC50) worked out at 108 nM.

Take `CCCSc1nccnc1O[C@H]1CN2CCC[C@@H]1C2` (relative stereo) [Compound 29]: the IC50 is 0.68 nM.

The compound `FC(F)(F)CSc1nccnc1O[C@H]1CN2CCC[C@@H]1C2` (relative stereo) [Compound 33] came in with an IC50 of 0.7 nM.

Take `CCCCOc1nccnc1OC1CN2CCC1CC2` (racemic) [Compound 3]: the half-inhibitory concentration (IC50) was 14.5 nM.

With `CCCSc1cncc(O[C@H]2CN3CCC[C@@H]2C3)n1` (relative stereo) [Compound 39], the IC50 came out at 80 nM.

In turn, `CSc1nccnc1OC1CN2CCC1CC2` (racemic) [Compound 13] showed an IC50 of 42 nM.

`CN1[C@@H]2CC[C@H]1C[C@@H](Oc1cnccn1)C2` [Compound 25] showed a 50% inhibitory concentration (IC50) of 680 nM.

The compound `CCSc1nccnc1OC1CN2CCC1CC2` (racemic) [Compound 14] came in with an IC50 of 21 nM.

As to `CCCOc1nccnc1OC1CN2CCC1CC2` (racemic) [Compound 4], the IC50 turned out to be 21 nM.

The compound `CCCSc1nccnc1OC1CN2CCC1CC2` (racemic) [Compound 15] registered an IC50 of 13 nM.

Turning to `CCCCOc1nonc1OC1CN2CCC1CC2` (racemic) [Compound 1], the IC50 was 56 nM.

With `C=CCSc1nccnc1O[C@H]1CN2CCC[C@@H]1C2` (relative stereo) [Compound 36], the IC50 came out at 5.8 nM.

Compound `CCOc1nccnc1OC1CN2CCC1CC2` (racemic) [Compound 11] showed an IC50 of 53 nM.

For the compound `CCCCOc1nccnc1O[C@H]1CN2CCC[C@@H]1C2` (relative stereo) [Compound 23], the IC50 came out at 2.7 nM.

`c1cnc(OC2CN3CCC2CC3)cn1` (racemic) [Compound 8] displayed a concentration for half-maximal inhibition (IC50) of over 1000 nM.

In turn, `c1cnc(O[C@H]2CN3CCC[C@@H]2C3)cn1` [Compound 21] showed an IC50 of 123 nM.

Regarding `Clc1nccnc1OC1CN2CCC1CC2` (racemic) [Compound 2], the IC50 was 253 nM.

Consider `CCSc1nccnc1O[C@H]1CN2CCC[C@@H]1C2` (relative stereo) [Compound 32], for which the IC50 is 4 nM.

`CC(C)CCSc1nccnc1O[C@H]1CN2CCC[C@@H]1C2` (relative stereo) [Compound 37] yielded an IC50 of 0.76 nM.

Regarding `CCCCSc1nccnc1OCCN(C)C` [Compound 17], the IC50 was 4.5 nM.

As to `C/C=C/CSc1nccnc1O[C@H]1CN2CCC[C@@H]1C2` (relative stereo) [Compound 34], the IC50 worked out at 0.66 nM.

System in a further data set: not given
Assay: not given
Particulars: in vivo; cited from earlier work.
With `CCCC(C)(COC(N)=O)COC(N)=O` [meprobamate], the side effects entry was “numerous side effects such as potential for abuse and addiction or potentiation of the effects of ethanol”.
